These results are taken from patent publication US20230174493A1, “Solid Dispersions of Amorphous 3,4-Diphenyl-4,5-Dihydro-1H-Pyrazole Derivatives, Compositions Comprising them and Uses Thereof as Cannabinoid CB1 Receptor Inhibitors” (INVERSAGO PHARMA INC., priority 2020, published 2023).

Data set [1] is described as follows: Solubility of crystalline form (development efforts).
Data set [2] can be described thus: Pharmacokinetic properties in Beagle dogs, single oral dose compared with intravenous administration. Conditions: dog, in vivo, 2 mg/kg, fasted. On the procedure: Pharmacokinetic properties were measured in Beagle dogs. Administration was done orally and compared with intravenous administration (2 mg/kg, in DMSO/tetraglycol/PEG400/water, 10:20:25:45). Each formulation was tested as a single dose on three (3) animals except for F6(b), which was tested on five (5) animals. Dogs were sampled at times 0, 1 h, 4 h, 8 h, 12 h, 24 h, 36 h, 48 h, and 72 h to give full time-concentration profiles. All tests were carried out with fasted dogs except test on normal dogs using F-SEDDS, which was carried on fed dogs. The results are as presented as an average between the tested animals.

Data set [3] can be described thus: Oral bioavailability of crystalline form (development efforts).

As a reminder, the AUC(0-inf) is total exposure, with the tail of the curve extrapolated. As to `C/C(N)=N/C(=N\S(=O)(=O)c1ccc(C(F)(F)F)cc1)N1C[C@H](c2ccccc2)C(c2ccc(Cl)cc2)=N1` [Compound 1], the Solubility entry in data set [1] is listed as “essentially insoluble”. Further, the C0 stood at 2220 ng/mL in data set [2] (i.v. 2 mg/kg in DMSO/tetraglycol/PEG400/water 10:20:25:45, Normal dogs (about 11 kg)) and 1820 ng/mL in data set [2] (i.v. 2 mg/kg in DMSO/tetraglycol/PEG400/water 10:20:25:45, Small dogs (about 7.5 kg)). The compound also registered an AUC(0-inf) in data set [2] (i.v. 2 mg/kg, Normal dogs (about 11 kg)) of 15400 ng·h/mL. For the same compound, the half-life in data set [2] (i.v. 2 mg/kg, Normal dogs (about 11 kg), read-out: T½ (converted)) was 5.88 h. Moreover, the Oral bioavailability entry in data set [3] is given as “very poor oral bioavailability”.
